Experimental data as given in patent publication US6403632B1, “Lactam metalloprotease inhibitors” (priority 2000, dated 2002).

Test system: cartilage degradation
Test: Acute Cartilage Degradation Rat Model
Format: in vivo
Settings: rats
Description: Acute Cartilage Degradation Rat Model A novel in vivo model of acute cartilage degradation in rats has been characterized as a method to determine the proteoglycan content in the synovial fluid after the induction of cartilage degradation.

SMILES: COc1ccc2c(c1)c(CC(=O)O)c(C)n2C(=O)c1ccc(Cl)cc1 [Indomethacin]
- inhibition of cartilage degradation, as measured by increased proteoglycan content in the synovial fluid: inactive
